Laboratory results published in patent US7932261B2, “Macrocycle derivatives useful as inhibitors of β-secretase (BACE)” (Janssen Pharmaceutica NV, priority 2006, dated 2011).
Read-outs that look alike come from different tables or passages of the source.

Legend:
Type in all cases: biochemical
human BACE-1 = human BACE-1 (Homo sapiens, UniProt P56817); experiment: in vitro BACE Assay run by CEREP (Example 15); details: for % Inhibition 0.3 μM / inhibition at 0.3 µM: 0.3 μM compound; for inhibition at 1 µM: 1 μM compound
Sequence of human BACE-1 (P56817 46-501): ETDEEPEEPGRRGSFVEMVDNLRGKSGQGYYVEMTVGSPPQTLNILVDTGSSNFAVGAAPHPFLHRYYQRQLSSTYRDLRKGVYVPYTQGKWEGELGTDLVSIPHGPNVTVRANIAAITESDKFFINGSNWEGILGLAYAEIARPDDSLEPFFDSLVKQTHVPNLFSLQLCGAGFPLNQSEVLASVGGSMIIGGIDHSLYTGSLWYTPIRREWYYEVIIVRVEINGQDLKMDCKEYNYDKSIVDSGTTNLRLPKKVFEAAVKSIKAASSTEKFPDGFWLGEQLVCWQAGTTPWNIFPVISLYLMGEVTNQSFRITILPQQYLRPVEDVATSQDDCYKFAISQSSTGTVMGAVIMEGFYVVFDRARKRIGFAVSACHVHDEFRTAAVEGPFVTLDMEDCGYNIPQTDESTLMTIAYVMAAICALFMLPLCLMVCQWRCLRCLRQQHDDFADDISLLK
Method: More specifically the assay, run at 50 μL in a 96 well plate, evaluated the effect of test compound on the activity of the human BACE-1 quantified by measuring the formation of Mca-S-E-V—N-L-NH2 from Mca-S-E-V—N-L-D-A-E-F—R—K(Dnp)-R—R—NH2, using a recombinant enzyme.
The test compound, reference compound or water (control) was added to a buffer containing 0.09 M sodium acetate (pH 4.5) and 0.25 μg BACE-1. Compound interference with the fluorimetric detection method due to autofluorescence was then checked by measurements at the wavelengths defined to evaluate the enzyme activity. […] For control basal measurement, the substrate was omitted from the reaction mixture. […] The standard inhibitory reference compound was OM99-2, which was tested in each experiment at several concentrations to obtain an inhibition curve from which its IC50 value was calculated.

β-secretase (BACE) [1] = biological target: T1, β-secretase (BACE) (Homo sapiens, UniProt P56817); experiment: in vitro BACE FS1 % Inhibition Assay (Example 13); details: FS1 substrate, pH 5; for inhibition at 0.3 µM: read-out: % Inhibition (Example 13) @ 0.3 μM; for inhibition at 0.3 µM / % Inhibition (Example 13) @ 0.3 μM: 0.3 μM compound; for inhibition at 1 µM: read-out: % Inhibition (Example 13) @ 1 μM; for inhibition at 1 µM / % Inhibition (Example 13) @ 1 μM: 1 μM compound; for inhibition at 3 µM: read-out: % Inhibition (Example 13) @ 3 μM; for inhibition at 3 µM / % Inhibition (Example 13) @ 3 μM: 3 μM compound
T1 construct: purchased Panvera
T1 sequence (P56817 46-501): as above
Method: (§1) The following assay buffers were prepared and used in this assay: (1) enzyme assay buffer (0.05 M sodium acetate, pH5, 0.1% PEG8000 (w/v)), (2) substrate assay buffer (0.05 M sodium acetate, pH5), and (3) compound vehicle (30% DMSO in 50 mM HEPES, pH 7.4).
(§2) The FS1-substrate stock solution was prepared in DMSO as a 10 mg/mL solution. The FS1-substrate working solution was prepared by diluting the 10 mg/mL stock solution with substrate assay buffer to a final concentration of 300 μg/mL. The α-secretase (BACE) working solution was prepared by diluting a 0.83 mg/mL BACE stock solution with enzyme assay buffer to a final concentration of 4 μg/mL.
Test compounds were dissolved in DMSO to 10 mM.
(§3) The screening procedure for this assay was as follows: 15 μL of BACE working solution was pipetted into each well of a 96-well plate. To each well was then pipetted 2 μL of test compound at the selected concentration. Test compound and BACE were then mixed with a pipettor and incubated for 20 min at room temperature. To each well was then added 10 µL of the FS1 substrate working solution. The plates were then incubated for 1 hour at room temperature.
The procedure for the blank (negative control) was as follows. 15 μL of assay buffer was pipetted into each well to be used as a blank control. To each well was then added 2 μL of vehicle and 10 μL of FS1-substrate working solution. The plates were then incubated for 1 hour at room temperature.
(§4) The procedure for the positive control was as follows: 15 μL of BACE working solution was pipetted into each well to be used as a positive control. To each well was then pipetted 2 μL of vehicle. Vehicle and BACE were then mixed with a pipettor and incubated for 20 min at room temperature. To each well was then added 10 μL of the FS1 substrate working solution. The plates were then incubated for 1 hour at room temperature.
For test compounds, % inhibition was determined at each concentration as follows: […]

β-secretase (BACE) [2] = biological target: T1, β-secretase (BACE); experiment: in vitro BACE Assay, Ki (Example 14)
Method: as §1
as §2, with “β-secretase” for “α-secretase”
Test compounds were dissolved in DMSO at 10 mM.
as §3, with “The” for “The screening”, “μL” for “µL”, “solution.” for “solution. The plates were then incubated for 1 hour at room temperature.”
as §4, with “solution.” for “solution. The plates were then incubated for 1 hour at room temperature.”
For test compounds, Ki inhibition was determined as follows: For each compound concentration and positive control, rate of cleavage of substrate (Vi, where i=compound concentration in μM) was determined as Δ Fluorescence/Δ time (min). Cleavage rates (Vi) were plotted as a function of inhibitor concentration in μM [I]. The Ki was then determined by fitting the following equation to the graph of [I] vs. Vi Y=aVmax/(50+24*(1+X/Ki)),

[3] = recombinant enzyme, pH 4.5, 60 min at 37° C.
[4] = read-out: (Example 14) Ki, FS1 substrate 50 μM, Km 24 μM, pH 5
[5] = recombinant enzyme, pH 4.5, 60 min at 37° C., read-out: IC50

## NC1=Nc2cnc3cc2CN1C(C1CCCCC1)CCC(=O)N(C1CCC(C(=O)O)CC1)CCc1cccc(c1)O3 (stereo not drawn) [Compound 33]
Human BACE-1; [3]
  % Inhibition 0.3 μM: 15%

## COc1cc2c3cc1Oc1cccc(c1)CCN(C1CCCCC1)C(=O)CC[C@@H](C1CCCCC1)N(C3)C(N)=N2 [Compound 18]
β-secretase (BACE) [1]
  inhibition at 0.3 µM: 95%
  inhibition at 1 µM: 107%
  inhibition at 3 µM: 115%

## NC1=Nc2ccc3cc2CN1CCNC(=O)CCC/C=C/c1ccccc1-3 [Compound 11]
β-secretase (BACE) [1]
  inhibition at 0.3 µM: -12%
  inhibition at 1 µM: 23%
  inhibition at 3 µM: 65%

## NC1=Nc2ccc3cc2CN1CCCCC(=O)N(C1CCCCC1)CCCc1cccc(c1)O3 [Compound 4]
β-secretase (BACE) [2]
  Ki: 44 nM
β-secretase (BACE) [1]
  inhibition at 0.3 µM: 100%
  inhibition at 1 µM: 115%
  inhibition at 3 µM: 120%

## NC1=Nc2ccc3cc2CN1[C@@H](C1CCCCC1)CNC(=O)CCc1cccc(c1)O3 [Compound 16]
β-secretase (BACE) [1]
  % Inhibition (Example 13) @ 0.3 μM: 39%
  % Inhibition (Example 13) @ 1 μM: 37%
  % Inhibition (Example 13) @ 3 μM: 61%

## CC(C)[C@@H]1CCC(=O)N(C2CCOCC2)CCc2cccc(c2)Oc2ccc3c(c2)CN1C(N)=N3 [Compound 20]
β-secretase (BACE) [2]; [4]
  Ki: 22 nM

## NC1=Nc2cnc3cc2CN1[C@H](C1CCCCC1)CCC(=O)N([C@H]1CC[C@@H](O)CC1)CCc1cccc(c1)O3 [Compound 34]
Human BACE-1; [3]
  inhibition at 0.3 µM: 86%
Human BACE-1; [5]
  IC50: 210 nM

## NC1=Nc2cnc3cc2CN1[C@H](C1CCCCC1)CCC(=O)N(C1CCCC1)CCc1cccc(c1)O3 [Compound 37]
Human BACE-1; [3]
  inhibition at 0.3 µM: 100%
Human BACE-1; [5]
  IC50: 70 nM

## NC1=Nc2ccc3cc2CN1[C@H](C1CCCCC1)CCC(=O)N([C@H]1CC[C@@H](O)CC1)CCc1cccc(c1)O3 [Compound 35]
Human BACE-1; [3]
  inhibition at 0.3 µM: 93%
Human BACE-1; [5]
  IC50: 83 nM

## NC1=Nc2ccc3cc2CN1[C@@H](C1CCCCC1)CCCN(C1CCCCC1)CCCc1cccc(c1)O3 [Compound 19]
β-secretase (BACE) [2]
  Ki: 400 nM
β-secretase (BACE) [1]
  inhibition at 0.3 µM: 35%
  inhibition at 1 µM: 55%
  inhibition at 3 µM: 93%

## Nc1nc2ccc3cc2cc1C(C1CCCCC1)C/C=C/C(=O)N(C1CCCCC1)CCc1cccc(c1)O3 (stereo not drawn) [Compound 39]
Human BACE-1; [3]
  inhibition at 1 µM: 53%
Human BACE-1; [5]
  IC50: 810 nM

## CC(C)[C@@H]1CCC(=O)N(C2CCCCC2)C2CCc3ccc(cc32)Oc2ccc3c(c2)CN1C(N)=N3 (stereo partly drawn) [Compound 36]
Human BACE-1; [3]
  % Inhibition 0.3 μM: 74%
Human BACE-1; [5]
  IC50: 150 nM

## NC1=Nc2ccc3cc2CN1[C@H](C1CCOCC1)CCC(=O)NCCc1cccc(c1)O3 [Compound 21]
β-secretase (BACE) [2]; [4]
  Ki: 100 nM
β-secretase (BACE) [1]
  % Inhibition (Example 13) @ 0.3 μM: 54%
  % Inhibition (Example 13) @ 1 μM: 88%
  % Inhibition (Example 13) @ 3 μM: 110%

## NC1=Nc2cc(F)c3cc2CN1[C@H](C1CCCCC1)CCC(=O)N(C1CCCCC1)CCc1cccc(c1)O3 [Compound 17]
β-secretase (BACE) [2]
  Ki: 7.6 nM
β-secretase (BACE) [1]
  inhibition at 0.3 µM: 139%
  inhibition at 1 µM: 145%
  inhibition at 3 µM: 151%

## CC(C)[C@@H]1CCC(=O)N(CCCO)CCc2cccc(c2)Oc2ccc3c(c2)CN1C(N)=N3 [Compound 25]
β-secretase (BACE) [2]
  Ki: 44 nM
β-secretase (BACE) [1]
  inhibition at 0.3 µM: 65%
  inhibition at 1 µM: 99%
  inhibition at 3 µM: 111%

## CC(C)[C@@H]1CCC(=O)N([C@H]2CC[C@@H](C(=O)O)CC2)CCc2cccc(c2)Oc2ccc3c(c2)CN1C(N)=N3 [Compound 23]
β-secretase (BACE) [2]
  Ki: 13 nM
β-secretase (BACE) [1]
  inhibition at 0.3 µM: 106%
  inhibition at 1 µM: 108%
  inhibition at 3 µM: 114%

## CC(C)[C@@H]1CCC(=O)N(C2CCCCC2)CCOc2cccc(c2)Oc2ccc3c(c2)CN1C(N)=N3 [Compound 27]
β-secretase (BACE) [2]
  Ki: 11 nM
β-secretase (BACE) [1]
  inhibition at 0.3 µM: 106%
  inhibition at 1 µM: 117%
  inhibition at 3 µM: 117%

## Nc1nc2ccc3cc2cc1C(C1CCCCC1)CCCC(=O)N(C1CCCCC1)CCc1cccc(c1)O3 (stereo not drawn) [Compound 40]
Human BACE-1; [3]
  inhibition at 1 µM: 13%

## NC1=Nc2ccc3cc2CN1[C@H](C1CCCCC1)CCC(=O)N([C@H]1CC[C@@H](C(=O)O)CC1)CCc1cccc(c1)O3 [Compound 29]
β-secretase (BACE) [1]
  inhibition at 0.3 µM: 120%
  inhibition at 1 µM: 116%
  inhibition at 3 µM: 125%

## CC(C)[C@@H]1CC(=O)N(C2CCCCC2)CCCc2cccc(c2)Oc2ccc3c(c2)CN1C(N)=N3 [Compound 3]
β-secretase (BACE) [1]
  % Inhibition (Example 13) @ 0.3 μM: 9%
  % Inhibition (Example 13) @ 1 μM: 7%
  % Inhibition (Example 13) @ 3 μM: 29%

## CC(C)[C@@H]1CCC(=O)Nc2ccc3ccc(cc3c2)Oc2ccc3c(c2)CN1C(N)=N3 [Compound 31]
β-secretase (BACE) [1]
  % Inhibition (Example 13) @ 0.3 μM: 14%
  % Inhibition (Example 13) @ 1 μM: 16%
  % Inhibition (Example 13) @ 3 μM: −15%

## NC1=Nc2ccc3cc2CN1CCCNC(=O)CCc1cccc(c1)O3 [Compound 9]
β-secretase (BACE) [1]; 0.3 µM
  % Inhibition (Example 13) @ 0.3 μM: −26%
β-secretase (BACE) [1]; 1 µM
  % Inhibition (Example 13) @ 1 μM: −21%
β-secretase (BACE) [1]; 3 µM
  % Inhibition (Example 13) @ 3 μM: 1%

## CC(C)C1CCC(=O)N(C2CCC(O)CC2)CCc2cccc(c2)Oc2ccc3c(c2)CN1C(N)=N3 (stereo not drawn) [Compound 26]
β-secretase (BACE) [1]
  % Inhibition (Example 13) @ 0.3 μM: −8%
  % Inhibition (Example 13) @ 1 μM: 23%
  % Inhibition (Example 13) @ 3 μM: 58%

## CC(C)[C@H]1CC(=O)N(C2CCCCC2)CCCc2cccc(c2)Oc2ccc3c(c2)CN1C(N)=N3 [Compound 5]
β-secretase (BACE) [1]
  % Inhibition (Example 13) @ 0.3 μM: 3%
  % Inhibition (Example 13) @ 1 μM: −6%
  % Inhibition (Example 13) @ 3 μM: 43%

## NC1=Nc2ccc3cc2CN1CCCNC(=O)CCc1cccc(c1)O3 [Compound 7]
β-secretase (BACE) [1]; 0.3 µM
  % Inhibition (Example 13) @ 0.3 μM: 39%
β-secretase (BACE) [1]; 1 µM
  % Inhibition (Example 13) @ 1 μM: 36%
β-secretase (BACE) [1]; 3 µM
  % Inhibition (Example 13) @ 3 μM: 37%

## CCOC(=O)C1CCC(N2CCc3cccc(c3)Oc3ccc4c(c3)CN(C(N)=N4)[C@H](C(C)C)CCC2=O)CC1 (stereo partly drawn) [Compound 28]
β-secretase (BACE) [1]
  % Inhibition (Example 13) @ 0.3 μM: 4%
  % Inhibition (Example 13) @ 1 μM: 59%
  % Inhibition (Example 13) @ 3 μM: 110%

## NC1=Nc2ccc3cc2CN1CCN(C(=O)C1CCCCC1)CCCc1cccc(c1)O3 [Compound 10]
β-secretase (BACE) [1]
  % Inhibition (Example 13) @ 0.3 μM: −9%
  % Inhibition (Example 13) @ 1 μM: 5%
  % Inhibition (Example 13) @ 3 μM: 7%

## NC1=Nc2cnc3cc2CN1[C@H](C1CCCCC1)CCC(=O)N(C1CCCCC1)CCc1cccc(c1)O3 [Compound 32]
Human BACE-1
  IC50: 55 nM
Human BACE-1; [3]
  inhibition at 0.3 µM: 99%

## NC1=Nc2cnc3cc2CN1[C@H](C1CCCCC1)CCC(=O)N(CC1CC1)CCc1cccc(c1)O3 [Compound 38]
Human BACE-1; [3]
  inhibition at 0.3 µM: 97%
Human BACE-1; [5]
  IC50: 67 nM

## NC1=Nc2ccc3cc2CN1CCCNC(=O)Cc1cccc(c1)O3 [Compound 12]
β-secretase (BACE) [1]
  % Inhibition (Example 13) @ 0.3 μM: −18%
  % Inhibition (Example 13) @ 1 μM: −0.4%
  % Inhibition (Example 13) @ 3 μM: 11%

## NC1=Nc2ccc3cc2CN1CCN(C1CCCCC1)C(=O)CCc1cccc(c1)O3 [Compound 15]
β-secretase (BACE) [1]
  % Inhibition (Example 13) @ 0.3 μM: −36%
  % Inhibition (Example 13) @ 1 μM: −31%
  % Inhibition (Example 13) @ 3 μM: 10%
